Literature values, collected in patent US20070015719A1 (Elan Pharma International Limited, priority 2005, published 2007).

Conditions: in acidic solutions

- stability: stable
Substance: 6-o-methyl erythromycin A [clarithromycin]
